How the values were obtained:
[1] = system: TNF-α production from human monocytic line THP-1 by LPS stimulation; test: In vitro test: TNF-α production from human monocytic line THP-1 by LPS stimulation; assay type: cell-based; settings: 2 h; test compound 10^−5 M, THP-1 cells 10^6/ml, LPS 2 μg/ml, 37° C. for two hours, human TNF-α specific ELISA; read-out: Inhibition rate (%) (TNF-α inhibition rates)
Method: (§1) Inhibitory effects on TNF-α production induced by lipopolysaccharide (LPS) stimulation were studied by in vitro or in vivo tests according to the method of McGeehan et al. (Nature, 370, […](1994)).
Analyses were carried out by measuring TNF-α production from human monocytic line THP-1 by LPS stimulation.
As a medium, an RPMI1640medium containing a fetal bovine serum(10%), L-glutamine (2 mM), 2-mercaptoethanol (50 μM), penicillin (50 units/ml) and streptomycin (50 μg/ml) was used.
With respect to cells, human monocytic line THP-1 cells cultured in the above-mentioned medium were centrifuged at 100×g for five minutes to remove supernatant and then re-suspended in the medium. With respect to LPS, LPS from S. Typhimurium was dissolved in purified water and then diluted with the medium. Test compounds were dissolved in dimethyl sulfoxide (DMSO) and then diluted with the medium.
The cells (10^6/ml), LPS (2 μg/ml) and the test compound (10^−5 M) prepared as mentioned above were mixed, and this mixture was incubated at 37° C. for two hours and then centrifuged at 1000×g […] in cultured supernatant were measured with a human TNF-α specific ELISA kit. TNF-α production was not observed in the cultured supernatant in the absence of LPS (control).
(§2) TNF-α production inhibition rates of the test compounds were determined by the following equation.
(§3) Inhibition rate (%)=[(A-B)/A]×100
A: TNF-α level in supernatant of culture medium in the absence of test compound
B: TNF-α level in supernatant of culture medium in the presence of test compound

[2] = system: TNF-α production induced by lipopolysaccharide (LPS) stimulation; test: In vivo test: TNF-α levels in plasma of LPS-administered rats; set-up: species or system rat; settings: female rats, oral administration of 50 mg/kg immediately after subcutaneous LPS, plasma two hours after LPS; for inhibition in vivo at 50 mg/kg: Rattus norvegicus, 2 h, read-out: Inhibition rate (%) (TNF-α production inhibition rates)
Method: as §1
Female rats (five per group), body weight of about 200 g,about eight weeks old, were used as test animals. With respect to LPS to be used, LPS from Salmonella was dissolved in physiological saline (1 mg/ml). Test compounds were dissolved or uniformly suspended in a 1% aqueous methylcellulose solution.
The above-mentioned LPS solution (0.5 ml/kg) was subcutaneously administered to the rat. Immediately after the LPS administration, the test compound preparation liquid (5 ml/kg, containing 50 mg/kg test compound) was orally administered. Two hours after the LPS administration, blood was collected from abdominal aorta and was centrifuged at 4° C. and 3000 rpm for ten minutes. TNF-α levels in the obtained plasma were measured with a rat TNF-α-specific ELISA kit. TNF-α was not observed in the plasma with respect to an LPS-nonadministered group (control).
as §2, §3
A: TNF-α level in plasma of test compound-nonadministered group
B: TNF-α level in plasma of test compound-administered group

Structure (SMILES) | melting point | inhibition at 10 µM [1] | inhibition in vivo at 50 mg/kg [2] | further results
CC(=O)SCCN(CCc1ccccc1)C(=O)N[C@@H](Cc1ccccc1)C(=O)N1CCN(CC(=O)O)CC1 [Compound No. 13-32, 1-[(2S)-2-[3-[2-(Acetylthio)ethyl]-3-phenethylureido]-3-phenylpropionyl]-4-(carboxymethyl)piperazine] | 230 °C (dec.) | – | – | –
CC(=O)SCCN(CCc1ccccc1)C(=O)N[C@@H](Cc1ccc([N+](=O)[O-])cc1)C(=O)NCCc1ccccn1 [Compound No. 27-50, (2S)-2-[3-[2-(Acetylthio)ethyl]-3-phenethylureido]-3-(4-nitrophenyl)-N-[2-(2-pyridyl)ethyl]propionamide] | 106 to 112.5 °C | – | – | –
CC(=O)Nc1ccc(C[C@H](NC(=O)N(CCSC(C)=O)CCc2ccccc2)C(=O)NCCN(C)C)cc1 [Compound No. 27-82, (2S)-3-[4-(Acetylamino)phenyl]-2-[3-[2-(acetylthio)ethyl]-3-phenethylureido]-N-[2-(dimethylamino)ethyl]propionamide] | 95 °C (dec.) | – | – | –
CC(=O)SCCN(CCc1ccccc1)C(=O)N[C@@H](Cc1ccc(F)cc1)C(=O)NCCN(C)C [Compound No. 27-54, (2S)-2-[3-[2-(Acetylthio)ethyl]-3-phenethylureido]-N-[2-(dimethylamino)ethyl]-3-(4-fluorophenyl)propionamide] | 90 °C | – | – | –
CN(C)CCNC(=O)[C@H](Cc1ccc([N+](=O)[O-])cc1)NC(=O)N(CCSC(=O)c1ccccc1)CCc1ccccc1 [Compound No. 27-42, (2S)-2-[3-[2-(Benzoylthio)ethyl]-3-phenethylureido]-N-[2-(dimethylamino)ethyl]-3-(4-nitrophenyl)propionamide] | – | 100% | – | –
CC(=O)SCCN(CCC1=CCCCC1)C(=O)N[C@@H](C)C(=O)N1CCN(C)CC1 [Compound No. 27-84, 1-[(2S)-2-[3-[2-(Acetylthio)ethyl]-3-[2-(1-cyclohexenyl)ethyl]ureido]propionyl]-4-methylpiperazine] | – | – | 56.7% | –
CC(=O)SCCN(CCc1ccccc1)C(=O)N[C@@H](Cc1ccc(-c2ccccc2)cc1)C(=O)NCCN(C)C [Compound No. 27-59, (2S)-2-[3-[2-(Acetylthio)ethyl]-3-phenethylureido]-3-(4-biphenylyl)-N-[2-(dimethylamino)ethyl]propionamide] | – | 100% | – | –
CCN(CC)CCNC(=O)[C@H](Cc1ccc([N+](=O)[O-])cc1)NC(=O)N(CCSC(C)=O)CCc1ccccc1 [Compound No. 27-47, (2S)-2-[3-[2-(Acetylthio)ethyl]-3-phenethylureido]-N-[2-(diethylamino)ethyl]-3-(4-nitrophenyl)propionamide] | 65 °C | 100% | – | –
CC(=O)SCCN(CCC1CCCCC1)C(=O)N[C@@H](C)C(=O)N1CCCCC1 [Compound No. 13-49, 1-[(2S)-2-[3-[2-(Acetylthio)ethyl]-3-(2-cyclohexylethyl)ureido]propionyl]piperidine] | – | – | 90% | –
CC(=O)SCCN(CCc1ccccc1)C(=O)N[C@@H](Cc1ccc([N+](=O)[O-])cc1)C(=O)NCCN(C(C)C)C(C)C [Compound No. 27-10] | – | 100% | – | –
CC(=O)SCCN(CCc1ccccc1)C(=O)N[C@@H](Cc1ccc([N+](=O)[O-])cc1)C(=O)NCCN(C)C1CCCCC1 [Compound No. 27-46, (2S)-2-[3-[2-(Acetylthio)ethyl]-3-phenethylureido]-N-[2-[(N-methyl)cyclohexylamino]ethyl]-3-(4-nitrophenyl)propionamide] | 90 °C | 100% | – | –
CC(=O)SCCN(CCc1ccccc1)C(=O)N[C@@H](Cc1ccc2ccccc2c1)C(=O)NCCN(C)C [Compound No. 27-58, (2S)-2-[3-[2-(Acetylthio)ethyl]-3-phenethylureido]-N-[2-(dimethylamino)ethyl]-3-(2-naphthyl)propionamide] | – | 100% | – | –
CC(=O)SCCN(CCC1CCCC1)C(=O)N[C@@H](C)C(=O)N1CCN(C)CC1 [Compound No. 13-57, 1-[(2S)-2-[3-[2-(Acetylthio)ethyl]-3-(2-cyclopentylethyl)ureido]propionyl]-4-methylpiperazine] | – | – | 90.1% | –
CC(=O)SCCN(CCOc1ccccc1)C(=O)N[C@@H](C)C(=O)N1CCN(C)CC1 [Compound No. 13-16] | – | – | – | Inhibition rate (%) (TNF-α production inhibition rates) [2]: 54.1%
CC(=O)SCCN(CCc1ccccc1)C(=O)NCC(=O)N1CCN(C)CC1 [Compound No. 13-20, 1-[2-[3-[2-(Acetylthio)ethyl]-3-phenethylureido]acetyl]-4-methylpiperazine] | – | – | 66.6% | –
COc1ccc(C[C@H](NC(=O)N(CCSC(C)=O)CCc2ccccc2)C(=O)NCCN(C)C)cc1 [Compound No. 27-56, (2S)-2-[3-[2-(Acetylthio)ethyl]-3-phenethylureido]-N-[2-(dimethylamino)ethyl]-3-(4-methoxyphenyl)propionamide] | – | 96.9% | – | –
CC(=O)SCCN(CCCc1ccccc1)C(=O)N[C@@H](C)C(=O)N1CCN(C)CC1 [Compound No. 13-12, 1-[(2S)-2-[3-[2-(Acetylthio)ethyl]-3-(3-phenylpropyl)ureido]propionyl]-4-methylpiperazine] | – | – | 62.3% | –
CC(=O)SCCN(CCC1CCCCC1)C(=O)N[C@@H](C)C(=O)N1CCN(C)CC1 [Compound No. 13-1, 1-[(2S)-2-[3-[2-(Acetylthio)ethyl]-3-(2-cyclohexylethyl)ureido]propionyl]-4-methylpiperazine] | – | – | 84.6% | –
CC(=O)SCCN(CCc1ccccc1)C(=O)N[C@@H](Cc1ccc([N+](=O)[O-])cc1)C(=O)NCCN(C)C [Compound No. 27-41, (2S)-2-[3-[2-(Acetylthio)ethyl]-3-phenethylureido]-N-[2-(dimethylamino)ethyl]-3-(4-nitrophenyl)propionamide] | – | 93.8% | – | –
CC(=O)SCCN(CCc1ccccc1)C(=O)N[C@@H](Cc1ccc([N+](=O)[O-])cc1)C(=O)NCCN1C(=O)c2ccccc2C1=O [Compound No. 27-45, (2S)-2-[3-[2-(Acetylthio)ethyl]-3-phenethylureido]-3-(4-nitrophenyl)-N-[2-(phthalimido)ethyl]propionamide] | 110 °C | – | – | –
CSCCC(NC(=O)N(CCSC(C)=O)CCc1ccccc1)C(=O)N1CCN(C)CC1 (racemic) [Compound No. 27-4, 1-[(2RS)-2-[3-[2-(Acetylthio)ethyl]-3-phenethylureido]-4-(methylthio)butyryl]-4-methylpiperazine] | – | – | 60.9% | –
CC(=O)SCCN(CCc1ccccc1)C(=O)N[C@@H](Cc1ccc(-c2ccccc2)c([N+](=O)[O-])c1)C(=O)NCCN(C)C [Compound No. 27-19, (2S)-2-[3-[2-(Acetylthio)ethyl]-3-phenethylureido]-N-[2-(dimethylamino)ethyl]-3-(2-nitro-4-biphenylyl)propionamide] | 90 °C | 93.5% | – | –
CC(=O)SCCN(C(=O)N[C@@H](C)C(=O)N1CCN(C)CC1)c1ccccc1 [Compound No. 13-17, 1-[(2S)-2-[3-[2-(Acetylthio)ethyl]-3-phenylureido]propionyl]-4-methylpiperazine] | – | – | 50.3% | –
CC(=O)SCCN(CCc1ccccc1)C(=O)N[C@@H](Cc1ccc(Cl)cc1)C(=O)NCCN(C)C [Compound No. 27-17, (2S)-2-[3-[2-(Acetylthio)ethyl]-3-phenethylureido]-3-(4-chlorophenyl)-N-[2-(dimethylamino)ethyl]propionamide] | – | 93.5% | – | –
CC(=O)SCCN(CCC1CCCCC1)C(=O)N[C@@H](C)C(=O)N1CCOCC1 [Compound No. 13-50, 4-[(2S)-2-[3-[2-(Acetylthio)ethyl]-3-(2-cyclohexylethyl)ureido]propionyl]morpholine] | – | – | 93.5% | –
CC(=O)SCCN(CCc1ccccc1)C(=O)N[C@H](C)C(=O)N1CCN(C)CC1 [Compound No. 13-3, 1-[(2R)-2-[3-[2-(Acetylthio)ethyl]-3-phenethylureido]propionyl]-4-methylpiperazine] | – | – | 66.8% | –

Reference: patent publication US6492370B1, “Urea derivatives and pharmaceutical compositions thereof” (Santen Pharmaceutical Co., Ltd., priority 1998, dated 2002)
